#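 Grown in 96-well plates, cells were treated for 48 hours with each compound at five concentrations. Insufficient inhibition: endpoint recorded as highest concentration tested. The concentration for 50% growth inhibition is given as GI50. The concentration for full growth arrest is given as TGI.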
# What was measured:
# Assay in all cases: NCI-60 cell line screen, 48 h
# SK-MEL-2 melanoma = tested on: SK-MEL-2 melanoma
# UACC-62 melanoma = tested on: UACC-62 melanoma
# SF-539 CNS = tested on: SF-539 CNS
# UACC-257 melanoma = tested on: UACC-257 melanoma
# LXFL 529 NSCLC = tested on: LXFL 529 NSCLC
# NCI-H226 lung = tested on: NCI-H226 lung
# SK-MEL-28 melanoma = tested on: SK-MEL-28 melanoma
# COLO 205 colon = tested on: COLO 205 colon
# NCI-H460 lung = tested on: NCI-H460 lung
# HCC-2998 colon = tested on: HCC-2998 colon
# A498 renal = tested on: A498 renal
# SK-OV-3 ovarian = tested on: SK-OV-3 ovarian
# MALME-3M melanoma = tested on: MALME-3M melanoma
# SNB-19 CNS = tested on: SNB-19 CNS
# HCT-15 colon = tested on: HCT-15 colon
# M19-MEL melanoma = tested on: M19-MEL melanoma
# CAKI-1 renal = tested on: CAKI-1 renal
# HOP-62 NSCLC = tested on: HOP-62 NSCLC
# K-562 leukemia = tested on: K-562 leukemia
# 786-0 renal = tested on: 786-0 renal
# SN12C renal = tested on: SN12C renal
# OVCAR-8 ovarian = tested on: OVCAR-8 ovarian
# SNB-75 CNS = tested on: SNB-75 CNS
# RXF-631 renal = tested on: RXF-631 renal
# U251 CNS = tested on: U251 CNS
# NCI-H23 lung = tested on: NCI-H23 lung
# HT29 colon = tested on: HT29 colon
# CCRF-CEM leukemia = tested on: CCRF-CEM leukemia
# MOLT-4 leukemia = tested on: MOLT-4 leukemia
# IGROV1 ovarian = tested on: IGROV1 ovarian
# KM12 colon = tested on: KM12 colon
# A549 NSCLC = tested on: A549 NSCLC
# HOP-92 NSCLC = tested on: HOP-92 NSCLC
# KM20L2 colon = tested on: KM20L2 colon
# XF 498 CNS = tested on: XF 498 CNS
# SW-620 colon = tested on: SW-620 colon
# HL-60(TB) leukemia = tested on: HL-60(TB) leukemia
# TK-10 renal = tested on: TK-10 renal
# DMS 273 small cell lung = tested on: DMS 273 small cell lung
# DLD-1 colon = tested on: DLD-1 colon
# UO-31 renal = tested on: UO-31 renal
# SF-295 CNS = tested on: SF-295 CNS
# OVCAR-4 ovarian = tested on: OVCAR-4 ovarian
# RPMI-8226 leukemia = tested on: RPMI-8226 leukemia
# HCT-116 colon = tested on: HCT-116 colon
# EKVX NSCLC = tested on: EKVX NSCLC
# NCI-H522 lung = tested on: NCI-H522 lung
# DMS 114 small cell lung = tested on: DMS 114 small cell lung
# ACHN renal = tested on: ACHN renal
# OVCAR-3 ovarian = tested on: OVCAR-3 ovarian
# M14 melanoma = tested on: M14 melanoma
# SK-MEL-5 melanoma = tested on: SK-MEL-5 melanoma
# OVCAR-5 ovarian = tested on: OVCAR-5 ovarian
# SF-268 CNS = tested on: SF-268 CNS
# RXF 393 renal = tested on: RXF 393 renal
# LOX IMVI melanoma = tested on: LOX IMVI melanoma
# SR leukemia = tested on: SR leukemia
smiles,measurement,setting,value
CC(C)OP(=O)(OC(C)C)C([CH2][Sn]([CH3])([CH3])[Cl])P(=O)(OC(C)C)OC(C)C,GI50,SK-MEL-2 melanoma,15.6 µM
same,TGI,SK-MEL-2 melanoma,29.9 µM
same,GI50,UACC-62 melanoma,14.1 µM
same,TGI,UACC-62 melanoma,32.9 µM
same,GI50,SF-539 CNS,24.2 µM
same,TGI,SF-539 CNS,51.5 µM
same,GI50,UACC-257 melanoma,21.3 µM
same,TGI,UACC-257 melanoma,65.3 µM
same,GI50,LXFL 529 NSCLC,15 µM
same,TGI,LXFL 529 NSCLC,29.4 µM
same,GI50,NCI-H226 lung,21.2 µM
same,TGI,NCI-H226 lung,41.3 µM
same,GI50,SK-MEL-28 melanoma,21.3 µM
same,TGI,SK-MEL-28 melanoma,74.9 µM
same,GI50,COLO 205 colon,15.2 µM
same,TGI,COLO 205 colon,29.1 µM
same,GI50,NCI-H460 lung,16 µM
same,TGI,NCI-H460 lung,36.3 µM
same,GI50,HCC-2998 colon,22.6 µM
same,TGI,HCC-2998 colon,40.3 µM
same,GI50,A498 renal,19.3 µM
same,TGI,A498 renal,> 100 µM
same,GI50,SK-OV-3 ovarian,25.5 µM
same,TGI,SK-OV-3 ovarian,64 µM
same,GI50,MALME-3M melanoma,16.3 µM
same,TGI,MALME-3M melanoma,33.2 µM
same,GI50,SNB-19 CNS,30.2 µM
same,TGI,SNB-19 CNS,86.9 µM
same,GI50,HCT-15 colon,20.2 µM
same,TGI,HCT-15 colon,47.4 µM
same,GI50,M19-MEL melanoma,19.8 µM
same,TGI,M19-MEL melanoma,49.9 µM
same,GI50,CAKI-1 renal,19.9 µM
same,TGI,CAKI-1 renal,55.7 µM
same,GI50,HOP-62 NSCLC,20.9 µM
same,TGI,HOP-62 NSCLC,40.4 µM
same,GI50,K-562 leukemia,25.3 µM
same,TGI,K-562 leukemia,> 100 µM
same,GI50,786-0 renal,16.7 µM
same,TGI,786-0 renal,33.1 µM
same,GI50,SN12C renal,27.9 µM
same,TGI,SN12C renal,> 100 µM
same,GI50,OVCAR-8 ovarian,30.2 µM
same,TGI,OVCAR-8 ovarian,> 100 µM
same,GI50,SNB-75 CNS,19.3 µM
same,TGI,SNB-75 CNS,43.3 µM
same,GI50,RXF-631 renal,38.3 µM
same,TGI,RXF-631 renal,> 100 µM
same,GI50,U251 CNS,20.4 µM
same,TGI,U251 CNS,46.3 µM
same,GI50,NCI-H23 lung,18.1 µM
same,TGI,NCI-H23 lung,44.3 µM
same,GI50,HT29 colon,22.1 µM
same,TGI,HT29 colon,79.2 µM
same,GI50,CCRF-CEM leukemia,20.7 µM
same,TGI,CCRF-CEM leukemia,64.9 µM
same,GI50,MOLT-4 leukemia,18.2 µM
same,TGI,MOLT-4 leukemia,46.2 µM
same,GI50,IGROV1 ovarian,24.5 µM
same,TGI,IGROV1 ovarian,97.4 µM
same,GI50,KM12 colon,13.4 µM
same,TGI,KM12 colon,41.9 µM
same,GI50,A549 NSCLC,27.7 µM
same,TGI,A549 NSCLC,> 100 µM
same,GI50,HOP-92 NSCLC,13.7 µM
same,TGI,HOP-92 NSCLC,34.4 µM
same,GI50,KM20L2 colon,17.5 µM
same,TGI,KM20L2 colon,34.6 µM
same,GI50,XF 498 CNS,14.5 µM
same,TGI,XF 498 CNS,35.1 µM
same,GI50,SW-620 colon,20.2 µM
same,TGI,SW-620 colon,42.5 µM
same,GI50,HL-60(TB) leukemia,4.56 µM
same,TGI,HL-60(TB) leukemia,18.2 µM
same,GI50,TK-10 renal,23.2 µM
same,TGI,TK-10 renal,69.9 µM
same,GI50,DMS 273 small cell lung,19.8 µM
same,TGI,DMS 273 small cell lung,53.5 µM
same,GI50,DLD-1 colon,36.8 µM
same,TGI,DLD-1 colon,> 100 µM
same,GI50,UO-31 renal,19.9 µM
same,TGI,UO-31 renal,43.2 µM
same,GI50,SF-295 CNS,19.7 µM
same,TGI,SF-295 CNS,48.7 µM
same,GI50,OVCAR-4 ovarian,26.8 µM
same,TGI,OVCAR-4 ovarian,> 100 µM
same,GI50,RPMI-8226 leukemia,15.2 µM
same,TGI,RPMI-8226 leukemia,35.1 µM
same,GI50,HCT-116 colon,19.7 µM
same,TGI,HCT-116 colon,42.8 µM
same,GI50,EKVX NSCLC,30.3 µM
same,TGI,EKVX NSCLC,98 µM
same,GI50,NCI-H522 lung,6.6 µM
same,TGI,NCI-H522 lung,23.5 µM
same,GI50,DMS 114 small cell lung,21.9 µM
same,TGI,DMS 114 small cell lung,67 µM
same,GI50,ACHN renal,31 µM
same,TGI,ACHN renal,> 100 µM
same,GI50,OVCAR-3 ovarian,20.2 µM
same,TGI,OVCAR-3 ovarian,72.5 µM
same,GI50,M14 melanoma,16.4 µM
same,TGI,M14 melanoma,31.4 µM
same,GI50,SK-MEL-5 melanoma,16.5 µM
same,TGI,SK-MEL-5 melanoma,31 µM
same,GI50,OVCAR-5 ovarian,31.5 µM
same,TGI,OVCAR-5 ovarian,> 100 µM
CC(C)c1cccc(C(C)C)c1NC(=S)N=Nc1cc(C(C)(C)C)c(O)c(C(C)(C)C)c1,TGI,SK-MEL-2 melanoma,35.8 µM
same,TGI,UACC-62 melanoma,50 µM
same,TGI,SF-268 CNS,> 100 µM
same,TGI,SF-539 CNS,39 µM
same,TGI,RXF 393 renal,30.9 µM
same,TGI,UACC-257 melanoma,43.7 µM
same,TGI,LXFL 529 NSCLC,> 100 µM
same,TGI,SK-MEL-28 melanoma,95.7 µM
same,TGI,COLO 205 colon,44.6 µM
same,TGI,NCI-H460 lung,67.8 µM
same,TGI,HCC-2998 colon,54.3 µM
same,TGI,A498 renal,34.4 µM
same,TGI,MALME-3M melanoma,63.8 µM
same,TGI,SNB-19 CNS,48.5 µM
same,TGI,HCT-15 colon,> 100 µM
same,TGI,HOP-62 NSCLC,32.3 µM
same,TGI,K-562 leukemia,78.8 µM
same,TGI,786-0 renal,35.7 µM
same,TGI,SN12C renal,52.4 µM
same,TGI,OVCAR-8 ovarian,38 µM
same,TGI,SNB-75 CNS,58 µM
same,TGI,RXF-631 renal,> 100 µM
same,TGI,U251 CNS,30.1 µM
same,TGI,NCI-H23 lung,31.8 µM
same,TGI,LOX IMVI melanoma,34.2 µM
same,TGI,HT29 colon,> 100 µM
same,TGI,CCRF-CEM leukemia,66.6 µM
same,TGI,MOLT-4 leukemia,> 100 µM
same,TGI,IGROV1 ovarian,62.6 µM
same,TGI,A549 NSCLC,45.6 µM
same,TGI,KM20L2 colon,58.6 µM
same,TGI,XF 498 CNS,43.3 µM
same,TGI,SW-620 colon,78 µM
same,TGI,HL-60(TB) leukemia,65.9 µM
same,TGI,TK-10 renal,71.5 µM
same,TGI,DMS 273 small cell lung,> 100 µM
same,TGI,DLD-1 colon,> 100 µM
same,TGI,UO-31 renal,74.7 µM
same,TGI,SF-295 CNS,> 100 µM
same,TGI,OVCAR-4 ovarian,43.1 µM
same,TGI,RPMI-8226 leukemia,85.9 µM
same,TGI,HCT-116 colon,13.1 µM
same,TGI,EKVX NSCLC,> 100 µM
same,TGI,DMS 114 small cell lung,55.5 µM
same,TGI,ACHN renal,> 100 µM
same,TGI,OVCAR-3 ovarian,52.2 µM
same,TGI,M14 melanoma,84.3 µM
same,TGI,SK-MEL-5 melanoma,37.3 µM
same,TGI,SR leukemia,> 100 µM
